Measurements taken from ChEMBL document CHEMBL4400563, “Discovery of a small molecule RXFP3/4 agonist that increases food intake in rats upon acute central administration” (Bioorg Med Chem Lett, 2019).
Activity calls are given as the source filed them. The rule behind the calls is not given here.

How the values were obtained:
Relaxin-3 receptor 2 [1] = target: T1, Relaxin-3 receptor 2 (Homo sapiens, UniProt Q8TDU9); experiment: Agonist activity at human RXFP4 expressed in CHOK1 cells assessed as inhibition of forskolin-stimulated intracellular cAMP accumulation preincubated for 30 mins followed by forskolin-stimulation and measured after 30 mins by HTRF assay relative to relaxin-3; format: functional, cell-based
T1 sequence (Q8TDU9 whole entry): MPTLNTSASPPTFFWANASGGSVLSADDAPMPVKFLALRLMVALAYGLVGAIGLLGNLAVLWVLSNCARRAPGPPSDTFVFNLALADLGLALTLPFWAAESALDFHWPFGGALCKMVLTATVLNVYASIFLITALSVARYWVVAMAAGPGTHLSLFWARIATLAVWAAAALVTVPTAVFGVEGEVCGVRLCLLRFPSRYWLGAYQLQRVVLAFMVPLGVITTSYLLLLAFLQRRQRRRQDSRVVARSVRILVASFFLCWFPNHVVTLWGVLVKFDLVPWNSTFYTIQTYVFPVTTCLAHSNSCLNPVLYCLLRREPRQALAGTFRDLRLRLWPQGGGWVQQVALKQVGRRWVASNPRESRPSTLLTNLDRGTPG

Relaxin-3 receptor 1 = target: T2, Relaxin-3 receptor 1 (Homo sapiens, UniProt Q9NSD7); experiment: Agonist activity at human RXFP3 expressed in CHOK1 cells assessed as inhibition of forskolin-stimulated intracellular cAMP accumulation preincubated for 30 mins followed by forskolin-stimulation and measured after 30 mins by HTRF assay; format: functional, cell-based
T2 sequence (Q9NSD7 whole entry): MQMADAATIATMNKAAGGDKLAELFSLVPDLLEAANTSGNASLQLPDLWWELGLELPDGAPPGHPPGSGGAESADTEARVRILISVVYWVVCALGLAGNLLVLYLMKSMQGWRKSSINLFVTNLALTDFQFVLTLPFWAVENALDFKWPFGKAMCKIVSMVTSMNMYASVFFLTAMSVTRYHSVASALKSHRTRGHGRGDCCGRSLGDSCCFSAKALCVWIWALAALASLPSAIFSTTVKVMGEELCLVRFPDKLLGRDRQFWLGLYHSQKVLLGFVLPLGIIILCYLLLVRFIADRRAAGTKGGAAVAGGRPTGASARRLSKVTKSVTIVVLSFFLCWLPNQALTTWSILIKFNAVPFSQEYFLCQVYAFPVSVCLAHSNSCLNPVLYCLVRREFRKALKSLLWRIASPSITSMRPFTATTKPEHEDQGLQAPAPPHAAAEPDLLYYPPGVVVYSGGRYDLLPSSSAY

[2] = target: T3, Relaxin-3 receptor 1 (Homo sapiens) (UniProt Q9NSD7); experiment: Agonist activity at human RXFP3 expressed in CHOK1 cells assessed as inhibition of forskolin-stimulated intracellular cAMP accumulation preincubated for 30 mins followed by forskolin-stimulation and measured after 30 mins by HTRF assay relative to relaxin-3; format: functional, cell-based
T3 sequence (whole entry): T2 sequence (Q9NSD7 whole entry)

Relaxin-3 receptor 2 [3] = target: T1, Relaxin-3 receptor 2; experiment: Agonist activity at human RXFP4 expressed in CHOK1 cells assessed as inhibition of forskolin-stimulated intracellular cAMP accumulation preincubated for 30 mins followed by forskolin-stimulation and measured after 30 mins by HTRF assay; format: functional, cell-based
Rattus norvegicus [4] = experiment: Induction of food intake in Sprague-Dawley rat at 1 umol, icv after 24 hrs (reference value: 24.1 +/- 2.7g); format: functional
Cricetulus griseus [5] = organism: Cricetulus griseus; experiment: Induction of JNK phosphorylation CHOK1 cells at 5 uM by Western blot analysis
CHO-K1 [6] = experiment: Effect on total JNK protein levels in CHOK1 cells at 5 uM by Western blot analysis; format: ADME, cell-based, Cricetulus griseus; conditions: chinese hamster, cho-k1, 5 µM
Rattus norvegicus [7] = experiment: Induction of food intake in satiated Sprague-Dawley rat at 1 umol, icv after 0 to 2 hrs (reference value: 1.7 +/- 0.5g); format: functional
[8] = target: T3, Relaxin-3 receptor 1 (Homo sapiens); experiment: Agonist activity at human RXFP3 expressed in CHOK1 cells assessed as induction of JNK phosphorylation at 5 uM by Western blot analysis; format: cell-based
Cricetulus griseus [9] = organism: Cricetulus griseus; experiment: Induction of ERK1/2 phosphorylation CHOK1 cells at 5 uM by Western blot analysis
Cricetulus griseus [10] = organism: Cricetulus griseus; experiment: Induction of p38 MAPK phosphorylation CHOK1 cells at 5 uM by Western blot analysis
[11] = target: Relaxin-3 receptor 1/2 (Homo sapiens) (UniProt Q9NSD7+Q8TDU9); experiment: Agonist activity at human RXFP3/4 in human U2OS cells assessed as induction of beta-arrestin recruitment incubated for 1 hr by chemiluminescence based PathHunter beta-arrestin assay relative to relaxin-3; format: cell-based
Sequence of Relaxin-3 receptor 1/2 (Homo sapiens) (Q8TDU9 whole entry, looked up, one chain of several): as the sequence (Q8TDU9 whole entry) above

Rattus norvegicus [12] = experiment: Induction of food intake in Sprague-Dawley rat at 1 umol, icv after 4 hrs (reference value: 2.5 +/- 0.6g); format: functional
[13] = target: T3, Relaxin-3 receptor 1 (Homo sapiens); experiment: Agonist activity at human RXFP3 expressed in CHOK1 cells assessed as induction of p38 MAPK phosphorylation at 5 uM by Western blot analysis; format: cell-based
CHO-K1 [14] = experiment: Effect on total ERK1/2 protein levels in CHOK1 cells at 5 uM by Western blot analysis; format: ADME, cell-based, Cricetulus griseus; conditions: chinese hamster, cho-k1, 5 µM
CHO-K1 [15] = experiment: Effect on total p38 MAPK protein levels in CHOK1 cells at 5 uM by Western blot analysis; format: ADME, cell-based, Cricetulus griseus; conditions: chinese hamster, cho-k1, 5 µM
Relaxin-3 receptor 2 [16] = target: T1, Relaxin-3 receptor 2; experiment: Agonist activity at human RXFP4 expressed in CHOK1 cell membranes assessed as stimulation of [35S]-GTPgammaS binding after 3 hrs by scintillation counting method; format: functional
[17] = target: T3, Relaxin-3 receptor 1 (Homo sapiens); experiment: Agonist activity at human RXFP3 expressed in CHOK1 cells assessed as induction of ERK1/2 phosphorylation at 5 uM by Western blot analysis; format: cell-based

Emax (Relaxin-3 receptor 2 [1]) [%] | EC50 (Relaxin-3 receptor 1) [nM] | Emax [2] [%] | EC50 (Relaxin-3 receptor 2 [3]) [nM] | Activity (Cricetulus griseus [5]) | Activity [8] | Activity (Cricetulus griseus [9]) | Activity (Cricetulus griseus [10]) | Emax [11] [%] | Activity [13] | EC50 (Relaxin-3 receptor 2 [16]) [nM] | Activity [17] | SMILES | Activity (Rattus norvegicus [4]) [g] | Activity (CHO-K1 [6]) | Activity (Rattus norvegicus [7]) [g] | Activity (Rattus norvegicus [12]) [g] | Activity (CHO-K1 [14]) | Activity (CHO-K1 [15])
113 | 800 | 77.7 | 4 |  |  |  |  |  |  |  |  | Cc1cc(O)cc2c(/C=N/NC(=N)NCCc3ccc(Cl)c(Cl)c3)c[nH]c12 |  |  |  |  |  | 
100 |  | 105 | 2 | inactive | Active | inactive | inactive | 79.2 | inactive | 11 | Active | CCc1cc(O)cc2c(/C=N/NC(=N)NCCc3ccc(Cl)cc3)c[nH]c12 | 35.3 | Non-Toxic | 3.5 | 7.1 | Non-Toxic | Non-Toxic
113 | 1300 | 55.7 | 100 |  |  |  |  |  |  |  |  | COc1cc(C)c2[nH]cc(/C=N/NC(=N)NCCc3ccc(Cl)cc3)c2c1 |  |  |  |  |  | 
99 to 99.2 |  |  | 58 |  |  |  |  |  |  |  |  | COc1cc(C)c2[nH]cc(/C=N/NC(=N)NCCc3ccc(Cl)c(Cl)c3)c2c1 |  |  |  |  |  | 
